{"source": "patent US9439857B2", "about": "“Foam containing benzoyl peroxide” (Foamix Pharmaceuticals Ltd., priority 2007, dated 2016)", "system": "skin hydration level", "test": "Skin hydration, Corneometer CM 825", "assay_type": "in vivo, human", "details": "BPO-047 variants, 8% glycerin, 2% sodium PCA", "description": "Healthy subjects were applied with single dose of formulations as shown in Example 14. Skin hydration is measured using a Corneometer® CM 825 instrument. (Courage+Khazaka, Koln, Germany). The measuring principle of the Corneometer® CM 825 is based on capacitance measurement of dielectric medium. Any change in the dielectric constant due to skin surface hydration alters the capacitance of a measuring capacitor. It is capable of detecting even slight changes in the skin hydration level.\nSkin hydration level is assessed at baseline (fifteen minutes after each subject washed the left and right forearms) with the Corneometer® CM 825. The formulations are applied in designated chambers under occlusion for 6 hours which are then removed and the skin cleaned. Hydration is then measured one hour later.\nStudy protocol: The study was performed in a temperature controlled room (20-24° C.). Subjects washed their arms with water (no soap) and dried their arms with dry paper towel. Formulations were applied using test chambers. The location of each chamber within the stripe was marked once applied (maximum of 3 stripes on each arm). Each stripe contained only one formulation. One stripe served as a control, non treated area. […] Skin hydration level was assessed at baseline T=0 (minimum 15 minutes following rinse), using the Corneometer® CM 825, and tested based on study design. […]"}
{"molecule": "O=C1CCC(C(=O)[O-])N1.[Na+]", "note": "(centres unmarked) [Sodium PCA, sodium salt of 2-pyrrolidone-5-carboxylic acid]", "values": [{"measurement": "hydration effect (Corneometer)", "value": "increases hydration but to a lesser extent"}]}
{"molecule": "OCC(O)CO", "note": "[glycerin]", "values": [{"measurement": "hydration effect (Corneometer)", "value": "main contributor to the hydration effect"}]}
